Laboratory results: patent US7601746B2 (Shionogi & Co., Ltd., priority 2003, dated 2009)

Target: T1, human TPO receptor (hTPOR) (Homo sapiens, UniProt P40238)
T1 construct: expressed in transfected cells; host or cells: BaF-B03 (murine IL-3 dependent cell line)
T1 sequence (P40238 26-635): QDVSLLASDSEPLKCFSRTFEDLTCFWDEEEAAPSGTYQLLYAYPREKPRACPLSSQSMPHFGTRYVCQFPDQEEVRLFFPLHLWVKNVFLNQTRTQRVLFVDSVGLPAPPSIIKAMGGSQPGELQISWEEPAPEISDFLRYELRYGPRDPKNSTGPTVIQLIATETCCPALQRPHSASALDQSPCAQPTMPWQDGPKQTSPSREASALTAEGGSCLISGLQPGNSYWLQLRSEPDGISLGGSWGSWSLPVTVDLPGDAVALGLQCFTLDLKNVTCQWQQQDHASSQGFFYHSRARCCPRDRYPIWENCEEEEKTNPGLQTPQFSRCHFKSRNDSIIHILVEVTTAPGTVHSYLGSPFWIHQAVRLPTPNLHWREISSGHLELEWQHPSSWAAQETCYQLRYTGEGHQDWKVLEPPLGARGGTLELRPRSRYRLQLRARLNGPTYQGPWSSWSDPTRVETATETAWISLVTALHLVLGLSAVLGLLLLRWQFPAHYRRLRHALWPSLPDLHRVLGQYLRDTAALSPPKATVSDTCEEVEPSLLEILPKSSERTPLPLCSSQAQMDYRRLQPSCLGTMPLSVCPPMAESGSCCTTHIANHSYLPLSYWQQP
Experiment: Thrombopoietic activity: proliferation of TPO dependent BaF/hTPOR cells (WST-1, absorbance at 450 nm)
Type: cell-based
Conditions: 20 h + 4 h WST-1, ED50 = half concentration of the concentration showing the maximum thrombopoietic activity, Table 1
Outline: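 Proliferation read-out: WST-1 absorbance at 450 nm after 20 h compound exposure plus 4 h reagent, using IL-3-deprived BaF/hTPOR cells (5×10^4 per well) dependent on human TPO receptor signalling. ED50 defined as half the concentration producing maximal activity.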

| EC50 [nM] | Structure (SMILES) |
| --- | --- |
| 0.88 | CCCCOC(CC)c1cccc(-c2csc(NC(=O)c3cc(F)c(C=C(C)C(=O)O)c(F)c3)n2)c1F (centres unmarked) [Compound B37, 3-(4-{4-[3-(1-n-butyloxypropyl)-2-fluorophenyl]thiazol-2-ylcarbamoyl}-2,6-difluorophenyl)-2-methylacrylic acid] |
| 10.1 | CCCCCCCOCCc1cccc(-c2csc(NC(=O)c3cc(F)c(/C=C(\OC)C(=O)O)c(F)c3)n2)c1OC [Compound B1953, (Z)-3-(2,6-difluoro-4-{4-[3-(2-heptyloxyethyl)-2-methyloxyphenyl]thiazol-2-ylcarbamoyl}phenyl)-2-methyloxyacrylic acid] |
| 0.97 | CCCOC(CCC)c1cccc(-c2csc(NC(=O)c3cc(Cl)c(C=C(C)C(=O)O)c(Cl)c3)n2)c1F (centres unmarked) [Compound B78, 3-(2,6-dichloro-4-{4-[2-fluoro-3-(1-n-propyloxybutyl)phenyl]thiazol-2-ylcarbamoyl}phenyl)-2-methylacrylic acid] |
| 12.9 | COc1c(CCOCCC(C)C)cccc1-c1csc(NC(=O)c2cc(F)c(/C=C(\C)C(=O)O)c(F)c2)n1 [Compound B1954] |
| 3.2 | CCC(CC)COCc1cccc(-c2csc(NC(=O)c3cc(Cl)c(/C=C(\C)C(=O)O)c(Cl)c3)n2)c1OC [Compound B2025, (E)-3-(2,6-dichloro-4-{4-[3-(2-ethylbutyloxymethyl)-2-methyloxyphenyl]thiazol-2-ylcarbamoyl}phenyl)-2-methylacrylic acid] |
| 4 | CC(=Cc1c(F)cc(C(=O)Nc2nc3c(s2)CCc2c(CCC(C)(C)C)cccc2-3)cc1F)C(=O)O [Compound A3, 3-{2,6-difluoro-4-[4,5-dihydro-6-(3,3-dimethylbutyl)naphtho[1,2-d]thiazol-2-ylcabamoyl)phenyl]-2-methylacrylic acid] |
| 23.2 | CCCOCCCc1cccc(-c2csc(NC(=O)c3cc(F)c(/C=C(\C)C(=O)O)c(F)c3)n2)c1OC [Compound B380, (E)-3-(2,6-difluoro-4-{4-[2-methyloxy-3-(3-propyloxypropyl)phenyl]thiazol-2-ylcarbamoyl}phenyl)-2-methylacrylic acid] |
| 0.97 | CC(=Cc1c(Cl)cc(C(=O)Nc2nc(-c3cccc(CCCOC(C)C)c3F)cs2)cc1Cl)C(=O)O [Compound B94, 3-(2,6-dichloro-4-{4-[2-fluoro-3-(3-isopropyloxypropyl)phenyl]thiazol-2-ylcarbamoyl)phenyl]-2-methylacrylic acid] |
| 1.23 | CCCCCCC(OC)c1cccc(-c2csc(NC(=O)c3cc(F)c(C=C(C)C(=O)O)c(F)c3)n2)c1F (centres unmarked) [Compound B23, 3-(2,6-difluoro-4-{4-[2-fluoro-3-(1-methyloxyheptyl)phenyl]thiazol-2-ylcarbamoyl}phenyl)-2-methylacrylic acid] |
| 0.63 | CCCCC(OCCC)c1cccc(-c2csc(NC(=O)c3cc(Cl)c(C=C(C)C(=O)O)c(Cl)c3)n2)c1F (centres unmarked) [Compound B86, 3-(2,6-dichloro-4-{4-[2-fluoro-3-(1-n-propyloxypentyl)phenyl]thiazol-2-ylcarbamoyl}phenyl)-2-methylacrylic acid] |
| 0.62 | CCCCCCOC(CC)c1cccc(-c2csc(NC(=O)c3cc(F)c(C=C(C)C(=O)O)c(F)c3)n2)c1F (centres unmarked) [Compound B38, 3-(2,6-difluoro-4-{4-[2-fluoro-3-(1-n-hexyloxypropyl)phenyl]thiazol-2-ylcarbamoyl}phenyl)-2-methylacrylic acid] |
| 13.2 | COc1c(CCCOCC2CCCC2)cccc1-c1csc(NC(=O)c2cc(Cl)c(/C=C(\C)C(=O)O)c(Cl)c2)n1 [Compound B1949, (E)-3-(2,6-dichloro-4-{4-[3-(3-cyclopentylmethyloxypropyl)-2-methyloxyphenyl]thiazol-2-ylcarbamoyl}phenyl)-2-methylacrylic acid] |
| 0.82 | CCCCCCC(OC)c1cccc(-c2csc(NC(=O)c3cc(Cl)c(C=C(C)C(=O)O)c(Cl)c3)n2)c1F (centres unmarked) [Compound B68, 3-(2,6-dichloro-4-{4-[2-fluoro-3-(1-methyloxyheptyl)phenyl]thiazol-2-ylcarbamoyl}phenyl)-2-methylacrylic acid] |
| 4 | CC(=Cc1c(F)cc(C(=O)Nc2nc(-c3cccc(CCC(C)(C)C)c3F)cs2)cc1F)C(=O)O [Compound B2, 3-(2,6-difluoro-4-{4-[3-(3,3-dimethylbutyl)-2-fluorophenyl]thiazol-2-ylcarbamoyl}phenyl)-2-methylacrylic acid] |
| 0.77 | CCCCOC(CCC)c1cccc(-c2csc(NC(=O)c3cc(F)c(C=C(C)C(=O)O)c(F)c3)n2)c1F (centres unmarked) [Compound B35, 3-(4-{4-[3-(1-n-butyloxybutyl)-2-fluorophenyl]thiazol-2-ylcarbamoyl}-2,6-difluorophenyl)-2-methylacrylic acid] |
| 14.5 | COc1c(CCOCCCC(C)C)cccc1-c1csc(NC(=O)c2cc(F)c(/C=C(\C)C(=O)O)c(F)c2)n1 [Compound B1920, (E)-3-[2,6-difluoro-4-(4-{2-methyloxy-3-[2-(4-methylpentyloxy)ethyl]phenyl}thiazol-2-ylcarbamoyl)phenyl)-2-methylacrylic acid] |
| 1 | CCCCC(OCC)c1cccc(-c2csc(NC(=O)c3cc(Cl)c(C=C(C)C(=O)O)c(Cl)c3)n2)c1F (centres unmarked) [Compound B71, 3-(2,6-dichloro-4-{4-[3-(1-ethyloxypentyl)-2-fluorophenyl]thiazol-2-ylcarbamoyl}phenyl)-2-methylacrylic acid] |
| 7.57 | CCC(CC)COCCc1cccc(-c2csc(NC(=O)c3cc(Cl)c(/C=C(\C)C(=O)O)c(Cl)c3)n2)c1OC [Compound B1958, (E)-3-[2,6-dichloro-4-(4-{3-[2-(2-ethylbutyloxy)ethyl]-2-methyloxyphenyl}thiazol-2-ylcarbamoyl)phenyl]-2-methylacrylic acid] |
| 2.01 | CCCCOC(c1cccc(-c2csc(NC(=O)c3cc(F)c(/C=C(\C)C(=O)O)c(F)c3)n2)c1OC)C(C)(C)C (centres unmarked) [Compound B425, (E)-3-(4-{4-[3-(1-butyloxy-2,2-dimethylpropyl)-2-methyloxyphenyl]thiazol-2-ylcarbamoyl}-2,6-difluorophenyl)-2-methylacrylic acid] |
| 15.5 | CCCCOCc1cccc(-c2csc(NC(=O)c3cc(F)c(/C=C(\C)C(=O)O)c(F)c3)n2)c1OC [Compound B1997, (E)-3-{4-[4-(3-butyloxymethyl-2-methyloxyphenyl)thiazol-2-ylcarbamoyl]-2,6-difluorophenyl}-2-methylacrylic acid] |
| 0.73 | CCCCCOC(c1cccc(-c2csc(NC(=O)c3cc(F)c(C=C(C)C(=O)O)c(F)c3)n2)c1F)C1CCCCC1 (centres unmarked) [Compound B14, 3-(4-{4-[3-(1-cyclohexyl-1-n-pentyloxymethyl)-2-fluorophenyl]thiazol-2-ylcarbamoyl}-2,6-difluorophenyl)-2-methylacrylic acid] |

| Structure (SMILES) | EC50 [nM] |
| --- | --- |
| CCCCCOCc1cccc(-c2csc(NC(=O)c3cc(F)c(/C=C(\C)C(=O)O)c(F)c3)n2)c1OC [Compound B1884] | 16.9 |

Same assay, conditions: 20 h + 4 h WST-1, ED50 = half concentration of the concentration showing the maximum thrombopoietic activity, Table 2

| EC50 [nM] | Structure (SMILES) |
| --- | --- |
| 24.2 | CO/C(=C\c1c(Cl)cc(C(=O)Nc2nc(-c3cccc(CCCOCC(C)(C)C)c3)c(OC)s2)cc1Cl)C(=O)O [Compound B1901, (Z)-3-[2,6-dichloro-4-(4-{3-[3-(2,2-dimethylpropyloxy)propyl]phenyl}-5-methyloxythiazol-2-ylcarbamoyl)phenyl]-2-methyloxyacrylic acid] |
| 23.2 | CCCOCCCc1cccc(-c2csc(NC(=O)c3cc(F)c(/C=C(\C)C(=O)O)c(F)c3)n2)c1OC [Compound B380, (E)-3-(2,6-difluoro-4-{4-[2-methyloxy-3-(3-propyloxypropyl)phenyl]thiazol-2-ylcarbamoyl}phenyl)-2-methylacrylic acid] |
| 21.2 | COc1c(CCCOCC(C)C)cccc1-c1csc(NC(=O)c2cc(Cl)c(/C=C(\C)C(=O)O)c(Cl)c2)n1 [Compound B1878, (E)-3-(2,6-dichloro-4-{4-[3-(3-isobuyloxypropyl)-2-methyloxyphenyl]thiazol-2-ylcarbamoyl}phenyl)-2-methylacrylic acid] |

| Structure (SMILES) | EC50 [nM] |
| --- | --- |
| CO/C(=C\c1c(Cl)cc(C(=O)Nc2nc(-c3cccc(CCCOCC(C)(C)C)c3F)c(OC)s2)cc1Cl)C(=O)O [Compound B1905] | 26.7 |
